Like-named read-outs stand apart in the source and are kept apart here. Marks after values point to notes of the source that are not given here.

One data set deals with MDA-MB-435 GFP FL cells. Nature of the data set: Tumor growth of MDA-MB-435 GFP FL breast cancer cells in nude mice. The format is in vivo, Nu/Nu athymic nude mice. Particulars: day 35; α-TEA in liposome via aerosol; MSC 3ppm in water by gavage. As for the experimental part:
Animals were given a total of 8 mg compound per day. […] Alpha-TEA liposome gavage reduced tumor growth by 68, 75, 78, 79 and 79% on days 27, 29, 31, 33, and 35, respectively (Fig. 15).
Animals were gavaged 3ppm methylselenocysteine (MSC) in water, α-TEA in liposome via aerosol, or gavaged 10 mg/kg b.w. trans-resveratrol (t-RES) in first 1:1, EtOH: physiological saline, and starting at day 24, 6.5% EtOH and 93.5% Neobee oil. A combination group was treated with each of the above three compounds, and a control group was treated with aerosolized liposome, 100 µl water, and 50 µl of the t-Res solvent. Animals were treated seven days a week, for 35+ days.

The subject of data set [1] is 66 cl.4-GFP cells. In words: Fluorescent lung micrometastases of 66 cl.4-GFP tumors in Balb/c mice. The format is in vivo. The source says: (§1) Metastastic lesions in the five lung lobes were counted visually at time of sacrifice. Fluorescent green micro-metastatic cancer cell colonies in the left lung lobe and lymph nodes were counted using a Nikon fluorescence microscope (TE-200) with a 20 x objective (200 x magnification) and Image-Pro Plus (version 4.1; Media Cybernetics, Silver Spring, MD) software associated with the microscope. Fluorescent lesions were separated into three size grouping: <5 µm , 5-10 µm and >10 µm.
(§2) At sacrifice, the left lung lobe of each mouse of flash frozen and saves for detection of GFP expressing micrometatstic lesions via fluorescent microscopy.

For data set [2] the following is noted: after thirty minutes, cited from earlier work.
The test system of data set [3] is 66 cl.4-GFP cells. In words: Fluorescent lymph node micrometastases of 66 cl.4-GFP tumors in Balb/c mice. It is filed as in vivo.
Text: as §1, §2

For data set [4], the system named is 66 cl.4-GFP cells. Nature of the data set: Tumor growth of 66 cl.4-GFP mammary tumor cells implanted in Balb/c mice. To be noted: for reduced tumor growth: liposome aerosol, 36 µg compound per day; for tumor growth, determined by tumor volume, versus controls: liposomal preparations delivered by aerosol, 36 µg per animal per day.
Protocol: 66 cl.4-GFP cells were harvested by trypsinization, centrifuged, resuspended in McCoy's media, containing no supplements at a density of 2 X 10^5/100µl. Mice were injected in the inguinal area at a point equal distance between the 4th and 5th nipples on the right side using a 23 gauge needle.
50 mice were assigned (10 per group) to aerosol treatment, aerosol control, oral treatment, oral control, or to the no treatment group so that the average tumor volume for all groups were closely matched. […] Tumors were measured using calipers every other day, and volumes were calculated using the formula: volume (mm^3) = [width (mm)^2 X length (mm)] /2. Body weights were determined weekly.
Balb/c mice were injected with 200,000 66 cl.4 GFP cells subcutaneous in the mammary fat pad area between the 4th and 5th nipple on the right side of the body.
Mice are injected with 200,000 66cl.4 GFP murine mammary tumor cells as described on day 0. Treatments are initiated on day 9 when tumors reached 1-3 mm in size. […] Data represent the mean +/- Standard Error (SE), N = 10 mice for control and treatment groups.
Balb/c mice were injected s. c. with 2 X 10^5 66 cl.4-GFP cells in the inguinal area between the 4th and 5th nipple on the right side of the body. When tumors reached 2 x 2-4 x 4 mm (9 days after tumor injection), mice were placed into 5 groups ((Group 1: untreated control, Group 2: liposome/aerosol control, Group 3: liposomal α-TEA aerosol treatment, Group 4: peanut oil/gavage control, Group 5: α-TEA in peanut oil/gavage treatment) of 10 mice/group) such that the mean tumor volume of each group was closely matched. Daily treatments were initiated on day 9 after tumor injection.
Balb/c mice were injected with 200,000 66 cl.4 GFP cells subcutaneous in the mammary fat pad area between the 4th and 5th nipple on the right side of the body. […] Animals were treated with α-TEA in liposome, vitamin E succinate in liposome, or control liposome alone via aerosol, 7 days per week, for 21 days. Animals were given 75 mg compound via nebulization per day such that each animal received 36 µg compound per day.
The size of the tumors, 9 - 21 days after injection of 200,000 66 cl.4 GFP cells between the 4th and 5th nipple on the right side of each mouse, is determined. Treatments are initiated on day 9 after tumor inoculation. Each group consists of n=10 +/- SE. Gavage Treatment = Treatments of 5 mg of α-TEA in ethanol and peanut oil (0.1 ml volume) are administered daily starting on day 9 after tumor inoculation and continuing through day 21. Gavage Control = Mice received peanut oil and ethanol alone (0.ml volume)/daily, starting on day 9 after tumor inoculation and continuing through day 21. Data (tumor size) are depicted as the mean +/- standard error for days 9, 11, 13, 15, 17, 19, and 21.
Balb/c mice were injected with 200,000 66 cl.4 GFP cells subcutaneous in the mammary fat pad area between the 4th and 5th nipple on the right side of the body. […] Animals were treated with α-TEA in liposome, vitamin E succinate in liposome, or control liposome alone via oral gavage, 2 times per day, 7 days per week, for 21 days. Animals were given a total of 6 mg compound per day.
Data set [5] relates to 66 cl.4-GFP cells. In words: Apoptosis by morphological evaluation of DAPI-stained nuclei. It is filed as cell-based, mouse. Particulars: three days.
The test system of data set [6] is 66 cl.4-GFP cells. Nature of the data set: Visible lung metastases of 66 cl.4-GFP tumors in Balb/c mice. The format is in vivo. Details: Inhibition (%) of visible lung metastases: concentration or dose not given beside the values. Particulars: liposomal formulations by aerosol; for Visible lung metastases/animal: 36 µg per animal per day, 19 or 21 days; for Inhibition (%) of visible lung metastases: versus control.
Text: as §1

In a further data set the test system is 66 cl.4-GFP tumors. Nature of the data set: TUNEL assay for apoptosis in tumor sections in vivo. Particulars: for % Enhanement of TUNEL Positive Apopotic Cells/Area: liposomal formulation by aerosol, versus control. Details: species or system Balb/c mice. The source says:
Deparaffinized sections (5 µm) of tumor tissue were used to assess apoptosis using reagents supplied in the ApopTag In Situ Apoptosis Detection kit (Intergen, Purchase, NY) according to the manufacturer's instructions. Nuclei that stained brown were scored as positive for apoptosis and those that stained blue were scored as negative. At least sixteen 400X microscopic fields were scored per tumor. Data are presented as the mean ± S. E number of apoptotic cells counted in three separate tumors from each group. Pictures of tumor tissue were taken at 1000X magnification.

The test system of data set [7] is proliferation biomarker KI-67. Nature of the data set: KI-67 immunohistochemistry of tumor sections (cell proliferation). The format is in vivo, Balb/c mice. To be noted: for % Reduction of KI67: liposomal formulation by aerosol, versus control.
Another data set deals with CD31. In words: CD31 immunohistochemistry of tumor sections (tumor blood vessel numbers). The format is in vivo, Balb/c mice. To be noted: for % Reduction of CD31 Blood Vessel Nos/Area: liposomal formulation by aerosol, versus control.
The mark [8] stands for this setting: Aerosol, in nebulizer per mouse: α-TEA 5 mg/d, 9NC 2 µg/d, combination 5 mg+2µg/d.
Where [9] appears, read: aerosol liposome delivery, 30 min.
Where [10] appears, read: liposomal formulation delivered by aerosol, tumor sections.

As for `C[Se]C[C@H](N)C(=O)O` [MSC, methylselenocysteine, reference compound], the “tumor volume decrease from the control” value in the data set on MDA-MB-435 GFP FL cells is recorded as 47.2%.

On to `CC[C@@]1(O)C(=O)OCc2c1cc1n(c2=O)Cc2cc3c([N+](=O)[O-])cccc3nc2-1` [9-nitrocamptothecin], for which, in the data set with 66 cl.4-GFP cells [1] (setting [8]), the “Inhibition (%) Metastases Lung” value amounted to 55%. For the same molecule, in data set [2] (setting [9]), the “Levels of 9-nitrocamptothecin in the brain” value is 61 ng/g, the “Levels of 9-nitrocamptothecin in the liver” value was 192 ng/g and the “Levels of 9-nitrocamptothecin in the lungs” value is 310 ng/g. In data set [2] (intramuscular delivery, 30 min), the “Levels of 9-nitrocamptothecin in the liver” value is 136 ng/g and the “Levels of 9-nitrocamptothecin in the lungs” value is 2 to 4 ng/g. The “Levels of 9-nitrocamptothecin in the brain” value in data set [2] (intramuscular delivery) is 0 ng/g. In addition, the “Inhibition (%) Metastases Lymphnode” value with 66 cl.4-GFP cells [3] (setting [8]) turned out to be 60%. Also, the “Inhibition (%) Tumor Growth” value with 66 cl.4-GFP cells [4] (setting [8]) is recorded as 58%.

With `Cc1c(C)c2c(c(C)c1OC(=O)CCC(=O)O)CC[C@@](C)(CCC[C@H](C)CCC[C@H](C)CCCC(C)C)O2` [vitamin E succinate, RRR-α-tocopheryl succinate, reference compound], in the data set with 66 cl.4-GFP cells [1] (liposomal formulation via gavage, 6 mg compound per day, 21 days), the “effect on lung metastasis” value is on record as “no effect on lung metastasis”. For the same molecule, the apoptosis with 66 cl.4-GFP cells [5] (2.5 µg/ml) worked out at 3%; with 66 cl.4-GFP cells [5] (5 µg/ml), 5%; in the data set with 66 cl.4-GFP cells [5] (10 µg/ml), 16%; in the data set on 66 cl.4-GFP cells [5] (20 µg/ml) it was 34%. In the data set with 66 cl.4-GFP cells [3] (liposome via gavage, 6 mg compound per day, 21 days), the “effect on lymph node micrometastatic lesions (Fig. 14B)” value is reported as “not effective in decreasing micrometastatic lung lesions”. Further, the reduced tumor growth was found to be 76% in the data set with 66 cl.4-GFP cells [4] (21 days, day 15); 76% in the data set with 66 cl.4-GFP cells [4] (21 days, day 17); 69% in the data set with 66 cl.4-GFP cells [4] (21 days, day 19); 68% with 66 cl.4-GFP cells [4] (21 days, day 21). Moreover, the “tumor growth versus control liposome” value in the data set with 66 cl.4-GFP cells [4] (liposome gavage, 6 mg compound per day, 21 days) was “did not reduce tumor growth”.

`Cc1c(C)c2c(c(C)c1O)CC[C@@](C)(CCC[C@H](C)CCC[C@H](C)CCCC(C)C)O2` [RRR-α tocopherol, RRR-α-tocopherol]: in the data set with 66 cl.4-GFP cells [6], the Visible lung metastases/animal was 1.7 and the “Inhibition (%) of visible lung metastases” value is 0%. Also, the “tumor growth, determined by tumor volume, versus controls” value with 66 cl.4-GFP cells [4] is “enhanced tumor growth”.

Consider `Cc1cc(O)cc2c1O[C@](C)(CCC[C@H](C)CCC[C@H](C)CCCC(C)C)CC2` [RRR-delta tocopherol, RRR-delta-tocopherol], for which, in the data set with 66 cl.4-GFP cells [6], the Visible lung metastases/animal is reported as 0.3 and the “Inhibition (%) of visible lung metastases” value stood at 82%.

Consider `CC(=O)Oc1c(C)c(C)c2c(c1C)CCC(C)(CCCC(C)CCCC(C)CCCC(C)C)O2` (racemic) [dl-α tocopherol acetate], for which, in the data set on 66 cl.4-GFP cells [6], the Visible lung metastases/animal is listed as 0.3 and the “Inhibition (%) of visible lung metastases” value was determined as 82%.

On to `Cc1c(O)cc2c(c1C)O[C@](C)(CCC[C@H](C)CCC[C@H](C)CCCC(C)C)CC2` [RRR-γ tocopherol, RRR-γ-tocopherol], for which, in the data set with 66 cl.4-GFP cells [6], the Visible lung metastases/animal was 1.15 and the “Inhibition (%) of visible lung metastases” value was 32%. Further, in the data set with 66 cl.4-GFP cells [4], the “tumor growth, determined by tumor volume, versus controls” value is given as “enhanced tumor growth”.

In turn, `Cc1c(C)c2c(c(C)c1O)CCC(C)(CCCC(C)CCCC(C)CCCC(C)C)O2` (racemic) [dl-α-tocopherol, dl-alpha-tocopherol] yielded a Visible lung metastases/animal in the data set on 66 cl.4-GFP cells [6] of 0.1. Besides, the “Inhibition (%) of visible lung metastases” value in the data set with 66 cl.4-GFP cells [6] is 94** %. Further, the “% Enhanement of TUNEL Positive Apopotic Cells/Area” value with 66 cl.4-GFP tumors and in the data set with 66 cl.4-GFP tumors (listed as dl-alpha-tocopherol) was 44% throughout. Besides, the “TUNEL Positive Apopotic Cells/Area” value in the data set with 66 cl.4-GFP tumors (setting [10]) was found to be 2.5. For the same molecule, the “% Reduction of KI67” value in [7] and in data set [7] (listed as dl-alpha-tocopherol) was 33% in each case. Besides, in data set [7] (setting [10]), the “KI67 Inhibition of Proliferation (%)” value is on record as 40%. Further, the “% Reduction of CD31 Blood Vessel Nos/Area” value with CD31 and in the data set with CD31 (listed as dl-alpha-tocopherol) was 51% each time. The “CD31 Blood Vessel Nos/Area” value with CD31 (setting [10]) came out at 112.

For the molecule `CC(C)=CCC/C(C)=C/CC/C(C)=C/CC[C@]1(C)CCc2c(C)c(O)c(C)c(C)c2O1` [RRR-α-tocotrienol, RRR-alpha-tocotrienol], in the data set on 66 cl.4-GFP cells [6], the Visible lung metastases/animal was determined as 0.4 and the “Inhibition (%) of visible lung metastases” value worked out at 77%.

These data come from EP1463487B1, “LIPOSOMAL DELIVERY OF VITAMIN E BASED COMPOUNDS” (RESEARCH DEVELOPMENT FOUNDATION, priority 2001, dated 2003).
